Laboratory results reported in patent US11298314B2, “Injectable composition for localized fat reduction without pain, edema, and side effects, and method for preparing same” (AMI PHARM CO., LTD., priority 2017, dated 2022).
Entries after “also recorded” stand apart in the source; their conditions may differ.

What was measured:
paw of the rats = assay: Rat paw edema; assay type: in vivo, Sprague Dawley rats; settings: for degree of edema in words: 2 hours after administration, rat paw; for degree of edema, 1 hour after administration / degree of edema, 2 hours after administration / degree of edema, Immediately after administration: 0.1 ml into rat paw
Method in brief: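 Male Sprague Dawley rats (6 weeks old, 170–200 g) received 0.1 ml of PBS or test composition into the paw. Paw thickness measured by caliper before, immediately after, and 1 or 2 h post-injection; edema graded 0–4, with injection-site skin lesions photographed.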

sole of the rat paws = assay: Measurement of skin lesion (erythema) on rat paw; assay type: in vivo, Sprague Dawley rats; settings: for skin lesion (erythema) in words: 2 hours after administration;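 on grade of skin lesion (erythema), 1 hour after administration: grades − to ++++ mean no to extremely severe erythema versus before injection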;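 on grade of skin lesion (erythema), 2 hours after administration: grades − to ++++ mean no to extremely severe erythema versus before injection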;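 on grade of skin lesion (erythema), Immediately after administration: grades − to ++++ mean no to extremely severe erythema versus before injection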
Method in brief: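 Male Sprague Dawley rats (6 weeks, 170–200 g) received 0.1 ml test composition or PBS injected into the paw. Paw thickness measured by caliper before, immediately after, and 1 or 2 h post-injection; sole lesions photographed and graded 0–4.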

[1] = tested on: tissues of the injected area (rat paw); assay: H&E staining histological test (inflammation) of injected rat paw; assay type: in vivo, Sprague Dawley rats; settings: bile acid single composition 1.0% (w/v), injected rat paw
Method: The tissues of the injected area were dissected, fixed with 10% formalin, and then the specimen was prepared and images were captured using an optical microscope. The degree of inflammation was evaluated as follows.

[2] = tested on: Caspase 3 in 3T3-L1 adipocytes; assay: Caspase 3 activity assay; assay type: cell-based
Method: The Caspase 3 activity assay was performed with the test materials to determine whether the cell death in the result of MTT assay was due to necrosis or apoptosis. The Caspase 3 specifically increases when apoptosis occurs and is a marker of apoptosis. […] The cells were then treated with 50 ul of cell lysis buffer (10 mM Tris-HCl, 10 mM NaH2PO4/NaHPO4, pH 7.5, 130 mM NaCl, 1% Triton X-100 and 10 mM sodium pyrophosphate) and left at 4° C. for […]. The supernatant was collected by centrifugation at 1000× rpm for 1 minute, and protein quantification was performed by BCA method. The 50 μl of reaction buffer (4 mM HEPES, pH 7.5, 10% glycerol, 2 mM dithiothreitol) and 0.5 μl of 4 mM DEVD-p-NA were added to each sample and reacted at 37° C. for 1 hour. Then wavelength was measured with a […] at 405 nm.

3T3-L1 adipocytes = assay: Lipolysis assay (glycerol release); assay type: cell-based; settings: 48 hours; listed as DCA single
Method: The glycerol activity assay was performed with the test materials to determine whether the cell death in the MTT assay was due to necrosis or lipolysis. Glycerol is a specific marker that increases when fat breaks down. Abcam Lipolysis Assay Kit (Colorimetric) was used according to the manufacturer's manual, and the method of the test was as follows: […] And then the lysis was induced. […] After adding the glycerol assay complex (50 μl) thereto, the solution was incubated at room temperature for 30 minutes. Absorbance was measured at OD 570 (using standard curve for absolute determination).

inguinal fat pad = settings: 0.2 ml s.c. once into inguinal fat pad, 8 days post-injection; listed as DCA single composition
[3] = Formulation stability of PPC injectable preparations: property, transparency, particle size, pH; settings: based on PPC 5.0%
[4] = bile acid single composition 1.0% (w/v)
[5] = bile acid single composition 2.5% (w/v)
[6] = bile acid single composition 5.0% (w/v)
[7] = bile acid single composition 7.5% (w/v)

degree of edema in words (paw of the rats; listed as DCA 1.0%): severe | degree of edema in words (paw of the rats; listed as DCA 2.5%): “severe” and “extremely severe” | skin lesion (erythema) in words (sole of the rat paws; listed as DCA 1.0%): Moderate | skin lesion (erythema) in words (sole of the rat paws; listed as DCA 2.5%): “severe” and “extremely severe” | grade of skin lesion (erythema), 1 hour after administration (sole of the rat paws; [4]): ++ | grade of skin lesion (erythema), 2 hours after administration (sole of the rat paws; [4]): ++ | grade of skin lesion (erythema), Immediately after administration (sole of the rat paws; [4]): ++ | grade of skin lesion (erythema), 1 hour after administration (sole of the rat paws; [5]): ++++ | grade of skin lesion (erythema), 2 hours after administration (sole of the rat paws; [5]): +++ | grade of skin lesion (erythema), Immediately after administration (sole of the rat paws; [5]): ++ | grade of skin lesion (erythema), 1 hour after administration (sole of the rat paws; [6]): ++++ | grade of skin lesion (erythema), 2 hours after administration (sole of the rat paws; [6]): ++++ | grade of skin lesion (erythema), Immediately after administration (sole of the rat paws; [6]): ++ | grade of skin lesion (erythema), 1 hour after administration (sole of the rat paws; [7]): ++++ | grade of skin lesion (erythema), 2 hours after administration (sole of the rat paws; [7]): ++++ | grade of skin lesion (erythema), Immediately after administration (sole of the rat paws; [7]): ++ | Inflammation (H&E), BA % (w/v) 1.0 [1]: +++ | caspase-3 activity ([2]; after 48 hours): returned to pretreatment levels | caspase-3 activity ([2]; up to 24 hours): some caspase-3 activity | inflammation at the site of administration, dermal and epidermal tissues (inguinal fat pad): severe inflammation was induced | bile acid concentration at which stable injectable preparations can be made [3]: ≥ 2.1%
SMILES: C[C@H](CCC(=O)O)[C@H]1CC[C@H]2[C@@H]3CC[C@@H]4C[C@H](O)CC[C@]4(C)[C@H]3C[C@H](O)[C@]12C [DCA, (4R)-4-[(3R,5R,8R,9S,10S,12S,13R,14S,17R)-3,12-dihydroxy-10,13-dimethyl-2,3,4,5,6,7,8,9,11,12,14,15,16,17-tetradecahydro-1H-cyclopenta[a]phenanthren-17-yl]pentanoic acid]
degree of edema, 1 hour after administration (paw of the rats; [4]): +++ (severe edema [+++, (the degree of swelling was 40-60% compared to before the injection)]) | degree of edema, 2 hours after administration (paw of the rats; [4]): +++ (severe edema [+++, (the degree of swelling was 40-60% compared to before the injection)]) | degree of edema, Immediately after administration (paw of the rats; [4]): ++ (moderate edema [++, (the degree of swelling was 20-40% compared to before the injection)]) | degree of edema, 1 hour after administration (paw of the rats; [5]): ++++ (extremely severe edema [++++, (the degree of swelling was 60% or more compared to before the injection)]) | degree of edema, 2 hours after administration (paw of the rats; [5]): ++++ (extremely severe edema [++++, (the degree of swelling was 60% or more compared to before the injection)]) | degree of edema, Immediately after administration (paw of the rats; [5]): ++ (moderate edema [++, (the degree of swelling was 20-40% compared to before the injection)]) | degree of edema, 1 hour after administration (paw of the rats; [6]): ++++ (extremely severe edema [++++, (the degree of swelling was 60% or more compared to before the injection)]) | degree of edema, 2 hours after administration (paw of the rats; [6]): ++++ (extremely severe edema [++++, (the degree of swelling was 60% or more compared to before the injection)]) | degree of edema, Immediately after administration (paw of the rats; [6]): ++ (moderate edema [++, (the degree of swelling was 20-40% compared to before the injection)]) | degree of edema, 1 hour after administration (paw of the rats; [7]): ++++ (extremely severe edema [++++, (the degree of swelling was 60% or more compared to before the injection)]) | degree of edema, 2 hours after administration (paw of the rats; [7]): ++++ (extremely severe edema [++++, (the degree of swelling was 60% or more compared to before the injection)]) | degree of edema, Immediately after administration (paw of the rats; [7]): ++ (moderate edema [++, (the degree of swelling was 20-40% compared to before the injection)]) | glycerol release / cytolytic activity (3T3-L1 adipocytes): slightly higher cytolytic activity than at 24 hours; also recorded: slightly higher cytolytic activity than that of 24 hours
